Measured values published in paper PMC7071076, “Antibacterial Activity and Pharmacokinetic Profile of a Promising Antibacterial Agent: 22-(2-Amino-phenylsulfanyl)-22-Deoxypleuromutilin” (Molecules, 2020).
Several values for one entry are separate records, joined by “and”; a condition that tells them apart may be missing. Identical values can stand only once. Like-named read-outs stand apart in the source and are kept apart here.

Columns and labels:
[1] = Pharmacokinetic study in mice; format: in vivo
Method: Pharmacokinetic parameters of amphenmulin were measured according to previous reports with some modifications. Each group consisted of eight female SPF-ICR mice. Amphenmulin (1 mg/mL) was administered intravenously, intraperitoneally, and orally at a dose of 10 mg/kg, respectively. Formulation of amphenmulin was a filtered solution in 5% DMSO, 5% Tween-80, and 90% normal saline. Serial samples (each 0.2 mL) were collected from the ocular venous plexus and placed in a plastic centrifuge tube. The blood samples were placed at room temperature for 20 min and transferred to a 4 °C refrigerator for 12 h to promote blood coagulation. Then samples were centrifuged at 2000 r/min for 10 min to get serum. Serum samples were frozen at −20°C. 100 µL of samples was accurately absorbed and mixed with 100 µL of acetonitrile in a 1.5 mL centrifuge tube. The sample was mixed vigorously and centrifuged at 12,000 rpm for 10 min. The supernatant was transferred, filtered through a 0.22 μm cellulose membrane filter and used for LC-MS/MS analysis. Equipment and analysis conditions were shown in supplemental data. The pharmacokinetic parameters of amphenmulin were determined from the mean plasma concentration with noncompartmental analysis in WinNonlin 5.2 software (Pharsight, Mountain View, CA, USA). Data were shown as mean ± standard deviation (SD).

IL-6 = experiment: MRSA wound infection model: serum cytokine ELISA; format: in vivo, mice; settings: three days after treatment (method: 24 h), p < 0.05
Method: Six weeks SPF-ICR female mice were used for this study. The Experimental model, inducted of inflammatory in mice by skin excision, was established referring to existing methods with some alterations. The mice were anesthetized with the intravenous injection of 1% sodium pentobarbital. After their hair on the back was shaved, the mice were anesthetized and the back skin was perforated with a biopsy perforator at a depth of fascia injury. The inoculum (50 μL), containing 10^9 CFU/mL of the indicated microorganism (MRSA ATCC 43300), was applied on the wound for three times at 30 min intervals. 100 μL drug (3 mg/mL) was administrated on the wound at 1 h after inoculation for three consecutive days. A total of 100 μL blank matrix was given to the infected control group and the non-infected group in the same way. The wound was wrapped with sterile gauze. During the treatment, all mice were kept individually and free to eat and drink.
After administration for 24 h, blood samples were collected from the ocular venous plexus and were prepared to serum samples as previously described. The contents of IL-6, TNF-α, and MCP-1 in serum were detected using ELISA kits according to the instruction. All ELISA kits were purchased from Shanghai Enzyme-linked Biotechnology Co., Ltd. (Shanghai, China).

[2] = female, ICR, mouse, plasma, mice, 10 mg/kg, intravenous
[3] = female, ICR, mouse, plasma, mice, 10 mg/kg, oral

## C=C[C@]1(C)C[C@@H](OC(=O)CSc2ccccc2N)[C@]2(C)[C@H](C)CC[C@]3(CCC(=O)[C@H]32)[C@@H](C)[C@@H]1O [Amphenmulin, 22-(2-amino-phenylsulfanyl)-22-deoxypleuromutilin]
[1]; female, ICR, mouse, plasma, iv, 10 mg/kg, intravenous 10 mg/kg, 4 h, mice 1-8 in order, read-out: plasma concentration, individual mice
  concentration at 4 h: 0.85 µg/mL
[1]; female, ICR, mouse, plasma, iv, 10 mg/kg, intravenous 10 mg/kg, 6 h, mice 1-8 in order, read-out: plasma concentration, individual mice
  concentration at 6 h: 0.46 µg/mL
[1]; female, ICR, mouse, plasma, iv, 10 mg/kg, mice, intravenous 10 mg/kg, 0.083 h, n = 8, read-out: plasma concentration, mean ± S.D
  concentration at 0.083 h: 3.94 ± 0.73 µg/mL
[1]; female, ICR, mouse, plasma, iv, 10 mg/kg, mice, intravenous 10 mg/kg, 0.25 h, n = 8, read-out: plasma concentration, mean ± S.D
  concentration at 0.25 h: 3.77 ± 0.64 µg/mL
[1]; female, ICR, mouse, plasma, iv, 10 mg/kg, mice, intravenous 10 mg/kg, 0.5 h, n = 8, read-out: plasma concentration, mean ± S.D
  concentration at 0.5 h: 3.53 ± 0.53 µg/mL
[1]; female, ICR, mouse, plasma, iv, 10 mg/kg, mice, intravenous 10 mg/kg, 0.75 h, n = 8, read-out: plasma concentration, mean ± S.D
  concentration at 0.75 h: 3.31 ± 0.74 µg/mL
[1]; female, ICR, mouse, plasma, iv, 10 mg/kg, mice, intravenous 10 mg/kg, 1 h, n = 8, read-out: plasma concentration, mean ± S.D
  concentration at 1 h: 3.19 ± 0.7 µg/mL
[1]; female, ICR, mouse, plasma, iv, 10 mg/kg, mice, intravenous 10 mg/kg, 2 h, n = 8, read-out: plasma concentration, mean ± S.D
  concentration at 2 h: 2.3 ± 0.65 µg/mL
[1]; female, ICR, mouse, plasma, iv, 10 mg/kg, mice, intravenous 10 mg/kg, 4 h, n = 8, read-out: plasma concentration, mean ± S.D
  concentration at 4 h: 1.01 ± 0.16 µg/mL
[1]; female, ICR, mouse, plasma, iv, 10 mg/kg, mice, intravenous 10 mg/kg, 6 h, n = 8, read-out: plasma concentration, mean ± S.D
  concentration at 6 h: 0.42 ± 0.09 µg/mL
[1]; female, ICR, mouse, plasma, iv, 10 mg/kg, mice, intravenous 10 mg/kg, 8 h, n = 8, read-out: plasma concentration, mean ± S.D
  concentration at 8 h: 0.21 ± 0.08 µg/mL
[1]; female, ICR, mouse, plasma, iv, 10 mg/kg, mice, intravenous 10 mg/kg, 12 h, n = 8, read-out: plasma concentration, mean ± S.D
  concentration at 12 h: 0.05 ± 0.01 µg/mL
[1]; female, ICR, mouse, plasma, po, 10 mg/kg, mice, oral 10 mg/kg, 0.25 h, n = 8, read-out: plasma concentration, mean ± S.D
  concentration at 0.25 h: 0.09 ± 0.05 µg/mL
[1]; female, ICR, mouse, plasma, po, 10 mg/kg, mice, oral 10 mg/kg, 0.5 h, n = 8, read-out: plasma concentration, mean ± S.D
  concentration at 0.5 h: 0.31 ± 0.11 µg/mL
[1]; female, ICR, mouse, plasma, po, 10 mg/kg, mice, oral 10 mg/kg, 1 h, n = 8, read-out: plasma concentration, mean ± S.D
  concentration at 1 h: 0.49 ± 0.16 µg/mL
[1]; female, ICR, mouse, plasma, po, 10 mg/kg, mice, oral 10 mg/kg, 2 h, n = 8, read-out: plasma concentration, mean ± S.D
  concentration at 2 h: 0.36 ± 0.21 µg/mL
[1]; female, ICR, mouse, plasma, po, 10 mg/kg, mice, oral 10 mg/kg, 3 h, n = 8, read-out: plasma concentration, mean ± S.D
  concentration at 3 h: 0.22 ± 0.15 µg/mL
[1]; female, ICR, mouse, plasma, po, 10 mg/kg, mice, oral 10 mg/kg, 4 h, n = 8, read-out: plasma concentration, mean ± S.D
  concentration at 4 h: 0.15 ± 0.08 µg/mL
[1]; female, ICR, mouse, plasma, po, 10 mg/kg, mice, oral 10 mg/kg, 6 h, n = 8, read-out: plasma concentration, mean ± S.D
  concentration at 6 h: 0.08 ± 0.03 µg/mL
[1]; female, ICR, mouse, plasma, po, 10 mg/kg, mice, oral 10 mg/kg, 8 h, n = 8, read-out: plasma concentration, mean ± S.D
  concentration at 8 h: 0.05 ± 0.02 µg/mL
[1]; female, ICR, mouse, plasma, po, 10 mg/kg, mice, oral 10 mg/kg, 12 h, n = 8, read-out: plasma concentration, mean ± S.D
  concentration at 12 h: 0.02 ± 0.01 µg/mL
[1]; [2]
  AUC(0-inf): 12.2 ± 1.35 µg·h/mL
  MRT: 2.57 ± 0.19 h
  half-life: 1.92 ± 0.28 h
[1]; female, ICR, mouse, plasma, mice, 10 mg/kg, intravenous, read-out: Vz
  Vd: 2.17 ± 0.42 L/kg
[1]; [3]
  AUC(0-inf): 1.67 ± 0.66 µg·h/mL
  Cmax: 0.53 ± 0.18 µg/mL
  MRT: 4.01 ± 0.62 h
  Tmax: 1.37 ± 0.74 h
  bioavailability: 13.7%
  half-life: 2.91 ± 0.81 h
[1]; female, ICR, mouse, plasma, mice, 10 mg/kg, oral, read-out: Vz/F
  Vd/F: 28.5 ± 9.01 L/kg
[1]; intraperitoneal 10 mg/kg, 0.083 h, mice 1-8 in order
  plasma concentration, individual mice: 0.94 µg/mL and 0.70 µg/mL and 0.61 µg/mL and 0.48 µg/mL and 0.79 µg/mL and 1.48 µg/mL and 0.68 µg/mL and 1.14 µg/mL
[1]; intraperitoneal 10 mg/kg, 0.25 h, mice 1-8 in order
  plasma concentration, individual mice: 0.98 µg/mL and 1.39 µg/mL and 1.10 µg/mL and 0.89 µg/mL and 1.15 µg/mL and 2.26 µg/mL and 1.20 µg/mL and 0.78 µg/mL
[1]; intraperitoneal 10 mg/kg, 0.5 h, mice 1-8 in order
  plasma concentration, individual mice: 0.81 µg/mL and 1.39 µg/mL and 1.54 µg/mL and 0.58 µg/mL and 0.89 µg/mL and 1.48 µg/mL and 0.54 µg/mL and 0.61 µg/mL
[1]; intraperitoneal 10 mg/kg, 0.75 h, mice 1-8 in order
  plasma concentration, individual mice: 0.42 µg/mL and 0.40 µg/mL
[1]; intravenous 10 mg/kg, 0.083 h, mice 1-8 in order, 10 mg/kg
  plasma concentration, individual mice: 4.5 µg/mL and 3.97 µg/mL and 3.15 µg/mL and 4.2 µg/mL and 5.1 µg/mL and 3.25 µg/mL and 4.31 µg/mL
[1]; intravenous 10 mg/kg, 0.25 h, mice 1-8 in order, 10 mg/kg
  plasma concentration, individual mice: 3.07 µg/mL and 3.57 µg/mL and 3.78 µg/mL and 4.44 µg/mL and 3.64 µg/mL and 4.65 µg/mL and 4.18 µg/mL
[1]; intravenous 10 mg/kg, 0.5 h, mice 1-8 in order, 10 mg/kg
  plasma concentration, individual mice: 3.66 µg/mL and 3.82 µg/mL and 3.09 µg/mL and 3.18 µg/mL and 4.31 µg/mL and 3.98 µg/mL and 3.54 µg/mL
[1]; intravenous 10 mg/kg, 0.75 h, mice 1-8 in order, 10 mg/kg
  plasma concentration, individual mice: 3.46 µg/mL and 4.22 µg/mL and 3.49 µg/mL and 2.98 µg/mL and 4.21 µg/mL and 3.48 µg/mL and 2.31 µg/mL
[1]; intravenous 10 mg/kg, 1 h, mice 1-8 in order, 10 mg/kg
  plasma concentration, individual mice: 3.90 µg/mL and 3.62 µg/mL and 3.02 µg/mL and 2.02 µg/mL and 2.52 µg/mL and 2.95 µg/mL and 3.40 µg/mL and 4.09 µg/mL
[1]; intravenous 10 mg/kg, 2 h, mice 1-8 in order, 10 mg/kg
  plasma concentration, individual mice: 1.56 µg/mL and 1.41 µg/mL and 2.31 µg/mL and 2.00 µg/mL and 2.56 µg/mL and 2.83 µg/mL and 3.14 µg/mL and 2.61 µg/mL
[1]; intravenous 10 mg/kg, 4 h, mice 1-8 in order, 10 mg/kg
  plasma concentration, individual mice: 0.99 µg/mL and 1.32 µg/mL and 1.00 µg/mL and 1.10 µg/mL and 0.89 µg/mL and 0.79 µg/mL and 0.94 µg/mL
[1]; intravenous 10 mg/kg, 6 h, mice 1-8 in order, 10 mg/kg
  plasma concentration, individual mice: 0.31 µg/mL and 0.43 µg/mL and 0.54 µg/mL and 0.52 µg/mL and 0.29 µg/mL and 0.34 µg/mL and 0.44 µg/mL
[1]; intravenous 10 mg/kg, 8 h, mice 1-8 in order, 10 mg/kg
  plasma concentration, individual mice: 0.10 µg/mL and 0.16 µg/mL and 0.30 µg/mL and 0.24 µg/mL and 0.19 µg/mL and 0.12 µg/mL and 0.28 µg/mL and 0.32 µg/mL
[1]; intravenous 10 mg/kg, 12 h, mice 1-8 in order, 10 mg/kg
  plasma concentration, individual mice: 0.03 µg/mL (2×) and 0.05 µg/mL (3×) and 0.08 µg/mL and 0.04 µg/mL and 0.06 µg/mL
[1]; mice, 10 mg/kg, intraperitoneal
  CLβ/F: 4.08 ± 1.14 L/h/kg
[1]; mice, 10 mg/kg, intravenous
  CLβ: 0.82 ± 0.09 L/h/kg
[1]; mice, 10 mg/kg, oral
  CLβ/F: 6.31 ± 2.26 L/h/kg
IL-6
  IL-6 in the serum vs infection group: significantly decreased
